Data reported in publication PMC6917776, “Discovery of a chemical probe for PRDM9” (Nature Communications, 2019).
Read-outs that look alike come from different tables or passages of the source.

Assays:
Assay in all cases: Methyltransferase selectivity assay (SPA)
Format in all cases: biochemical
PRMT8 = biological target: T1, PRMT8 (Homo sapiens, UniProt Q9NR22); conditions: for Activity % / activity at 1 µM: 1µM compound; for Activity %: Exp1, Exp2, 1 µM; for activity at 10 µM: 10µM compound
T1 construct: purchased Structural Genomics Consortium (SGC Toronto) in-house methyltransferase panel
Protocol: (§1) Selectivity against methyltransferases were determined as described previously. Details of the assays are described in the supplementary methods.
(§2) Methyltransferase selectivity assay1
(§3) The effect of chemical probes and negative controls on the methyltransferase activities of protein, DNA and RNA methyltransferases was tested by radiometric assays using 3H-SAM. For proteins such as MLL1 trimeric, MLL3 pentameric, EZH1 (PRC2) pentameric, and EZH2 (PRC2) trimeric complexes, as well as G9a, GLP, SUV39H1, SUV39H2, SUV420H1, SUV420H2, SETD2, SETD8, SETDB1, SETD7, PRMT1, PRMT3, PRMT4, PRMT5/ MEP50 complex, PRMT6, PRMT7, PRMT8, PRMT9, PRDM9, SMYD2, SMYD3, DNMT1, and BCDIN3D the incorporation of a tritium-labeled methyl group into biotinylated substrate was monitored using scintillation proximity assay (SPA). Briefly, a 10 µL reaction containing 3H-SAM and substrate at concentrations close to the apparent Km values for each enzyme (balanced conditions) was prepared. The reactions were quenched with 10 µL of 7.5 M guanidine hydrochloride; 180 µL of 20 mM Tris buffer (pH 8.0) were added, and the mixture was transferred to a 96-well FlashPlate and incubated for 1 h. The counts per minute (CPM) was measured on a TopCount plate reader. The CPM in the absence of compound or enzyme was defined as 100% activity and background (0%), respectively, for each dataset. […]

GLP = biological target: T2, GLP (Homo sapiens, UniProt Q9H9B1); conditions: EHMT1, Exp1, Exp2
T2 construct: purchased Structural Genomics Consortium (SGC Toronto) in-house methyltransferase panel
T2 sequence (Q9H9B1 1-1298): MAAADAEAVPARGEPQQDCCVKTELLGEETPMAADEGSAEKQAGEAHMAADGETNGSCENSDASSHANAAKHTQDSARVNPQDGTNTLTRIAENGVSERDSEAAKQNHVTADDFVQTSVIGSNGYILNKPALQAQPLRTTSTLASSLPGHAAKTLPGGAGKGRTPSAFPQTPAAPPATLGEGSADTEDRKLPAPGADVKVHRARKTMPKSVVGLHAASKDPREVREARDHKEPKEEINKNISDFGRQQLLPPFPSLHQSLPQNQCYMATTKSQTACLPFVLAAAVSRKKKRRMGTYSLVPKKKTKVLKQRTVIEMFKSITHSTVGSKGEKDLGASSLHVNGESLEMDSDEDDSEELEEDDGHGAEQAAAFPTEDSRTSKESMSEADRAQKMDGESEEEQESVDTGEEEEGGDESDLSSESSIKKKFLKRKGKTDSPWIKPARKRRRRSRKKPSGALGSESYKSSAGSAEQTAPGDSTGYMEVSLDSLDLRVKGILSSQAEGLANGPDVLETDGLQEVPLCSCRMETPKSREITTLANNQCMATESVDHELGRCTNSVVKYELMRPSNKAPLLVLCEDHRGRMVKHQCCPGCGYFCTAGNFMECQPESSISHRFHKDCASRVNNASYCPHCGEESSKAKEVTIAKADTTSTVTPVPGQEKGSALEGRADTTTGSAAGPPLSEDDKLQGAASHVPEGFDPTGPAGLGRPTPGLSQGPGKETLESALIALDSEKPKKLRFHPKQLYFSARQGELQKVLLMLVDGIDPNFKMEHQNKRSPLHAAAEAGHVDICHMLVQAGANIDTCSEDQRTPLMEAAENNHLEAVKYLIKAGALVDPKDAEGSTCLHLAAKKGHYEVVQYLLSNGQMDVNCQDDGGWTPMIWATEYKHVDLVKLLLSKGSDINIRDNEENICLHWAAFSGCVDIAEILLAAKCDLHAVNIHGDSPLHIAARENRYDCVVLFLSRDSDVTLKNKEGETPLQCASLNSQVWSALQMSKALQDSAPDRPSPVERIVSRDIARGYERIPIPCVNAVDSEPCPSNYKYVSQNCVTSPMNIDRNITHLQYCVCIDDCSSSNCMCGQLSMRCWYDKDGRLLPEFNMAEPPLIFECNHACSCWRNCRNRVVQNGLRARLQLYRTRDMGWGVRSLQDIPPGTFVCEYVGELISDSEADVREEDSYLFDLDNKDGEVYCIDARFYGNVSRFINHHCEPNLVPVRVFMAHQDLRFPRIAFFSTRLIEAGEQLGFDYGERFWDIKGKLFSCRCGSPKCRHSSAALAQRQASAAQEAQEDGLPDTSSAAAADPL
Protocol: as §1, §2, §3

PRMT3 = biological target: T3, PRMT3 (Homo sapiens, UniProt O60678)
T3 construct: purchased Structural Genomics Consortium (SGC Toronto) in-house methyltransferase panel
Protocol: as §1, §2, §3

SMYD3 = biological target: T4, SMYD3 (Homo sapiens, UniProt Q9H7B4)
T4 construct: purchased Structural Genomics Consortium (SGC Toronto) in-house methyltransferase panel
T4 sequence (Q9H7B4 1-428): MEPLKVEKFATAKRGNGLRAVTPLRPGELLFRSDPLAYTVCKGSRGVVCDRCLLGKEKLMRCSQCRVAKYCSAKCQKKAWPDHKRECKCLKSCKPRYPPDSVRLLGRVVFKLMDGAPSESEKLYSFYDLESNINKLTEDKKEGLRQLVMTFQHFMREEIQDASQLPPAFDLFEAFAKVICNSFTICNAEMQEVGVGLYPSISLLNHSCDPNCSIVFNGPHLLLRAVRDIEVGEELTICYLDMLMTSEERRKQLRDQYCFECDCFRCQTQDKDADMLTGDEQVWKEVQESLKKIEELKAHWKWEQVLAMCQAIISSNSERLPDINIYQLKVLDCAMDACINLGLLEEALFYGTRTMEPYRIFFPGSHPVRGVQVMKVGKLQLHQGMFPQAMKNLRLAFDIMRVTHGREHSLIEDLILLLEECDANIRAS
Protocol: as §1, §2, §3

[1] = Exp1, Exp2, read-out: Activity %
[2] = 1µM compound, Exp1, Exp2, read-out: Activity %
[3] = 10µM compound, Exp1, Exp2, 10 µM
[4] = 10µM compound, Exp1, Exp2, read-out: Activity %

T1 sequence (Q9NR22 whole entry): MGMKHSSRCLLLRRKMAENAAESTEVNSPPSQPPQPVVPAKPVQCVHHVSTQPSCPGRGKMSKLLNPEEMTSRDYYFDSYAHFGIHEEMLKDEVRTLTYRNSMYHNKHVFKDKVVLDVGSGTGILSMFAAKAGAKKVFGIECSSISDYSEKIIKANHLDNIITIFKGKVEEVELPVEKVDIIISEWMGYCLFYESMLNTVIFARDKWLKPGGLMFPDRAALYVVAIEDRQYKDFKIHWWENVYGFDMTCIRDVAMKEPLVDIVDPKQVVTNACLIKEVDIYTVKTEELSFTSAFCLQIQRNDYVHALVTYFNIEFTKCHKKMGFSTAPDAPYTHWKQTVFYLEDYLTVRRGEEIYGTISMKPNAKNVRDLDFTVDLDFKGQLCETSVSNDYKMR
T3 sequence (O60678 whole entry): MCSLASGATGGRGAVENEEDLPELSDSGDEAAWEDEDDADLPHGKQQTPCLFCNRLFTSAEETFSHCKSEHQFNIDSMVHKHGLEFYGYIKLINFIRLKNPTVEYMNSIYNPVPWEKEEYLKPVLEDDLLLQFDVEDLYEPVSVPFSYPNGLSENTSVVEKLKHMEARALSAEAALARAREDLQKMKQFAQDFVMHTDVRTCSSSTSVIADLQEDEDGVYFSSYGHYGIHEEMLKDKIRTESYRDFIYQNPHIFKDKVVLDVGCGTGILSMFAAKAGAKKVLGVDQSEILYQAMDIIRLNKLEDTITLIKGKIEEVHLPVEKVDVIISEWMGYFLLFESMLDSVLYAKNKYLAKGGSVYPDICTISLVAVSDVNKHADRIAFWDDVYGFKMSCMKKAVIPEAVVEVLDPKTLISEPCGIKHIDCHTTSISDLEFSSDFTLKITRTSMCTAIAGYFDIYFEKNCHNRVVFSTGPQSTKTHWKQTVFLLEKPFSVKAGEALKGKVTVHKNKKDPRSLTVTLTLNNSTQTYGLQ

COc1cc(OC)cc(-c2noc(N3CCN(C)C4(CCN(c5ccnc(C)c5)CC4)C3)n2)c1 [MRK-740]
Activity % (PRMT8): 95% | activity at 1 µM (PRMT8; [1]): 104% | activity at 10 µM (PRMT8; [1]): 105% | Activity % (GLP; 1µM compound, 1 µM): 100% | activity at 1 µM (GLP; 1µM compound, read-out: Activity %): 93% | Activity % (GLP; 10µM compound, 10 µM): 84% | activity at 10 µM (GLP; 10µM compound, read-out: Activity %): 94% | Activity % (PRMT3; 1µM compound, Exp1, Exp2, 1 µM): 88% | activity at 1 µM (PRMT3; [2]): 90% | Activity % (PRMT3; [3]): 87% | activity at 10 µM (PRMT3; [4]): 92% | Activity % (SMYD3; 1µM compound, Exp1, Exp2, 1 µM): 91% | activity at 1 µM (SMYD3; [2]): 95% | Activity % (SMYD3; [3]): 101% | activity at 10 µM (SMYD3; [4]): 96%

COc1cc(OC)cc(-c2noc(N3CCN(C)C4(CCN(c5ccccc5)CC4)C3)n2)c1 [MRK-740 -NC]
activity at 1 µM (PRMT8; Exp1, Exp2): 97% | Activity % (PRMT8): 104% | activity at 10 µM (PRMT8; Exp1, Exp2): 98% | activity at 1 µM (GLP; 1µM compound): 100% | activity at 10 µM (GLP; 10µM compound): 95% | Activity % (GLP; 10µM compound, 10 µM): 98% | activity at 1 µM (PRMT3; 1µM compound, Exp1, Exp2): 105% | Activity % (PRMT3; 1µM compound, Exp1, Exp2, 1 µM): 106% | activity at 10 µM (PRMT3; 10µM compound, Exp1, Exp2): 104% | Activity % (PRMT3; [3]): 97% | activity at 1 µM (SMYD3; 1µM compound, Exp1, Exp2): 100% | Activity % (SMYD3; 1µM compound, Exp1, Exp2, 1 µM): 102% | activity at 10 µM (SMYD3; 10µM compound, Exp1, Exp2): 96% | Activity % (SMYD3; [3]): 89%
